Experiments:
hSTING-WT = hSTING-WT (Homo sapiens (Human), UniProt Q86WV6, H232R); assay: Radiometric filtration binding competition assay, hSTING-WT
mSTING-R232 = mSTING-R232 (Mus musculus, UniProt Q3TBT3); assay: STING differential scanning fluorimetry (DSF) assay, mouse STING; conditions: net shift in melting temperature
Description: A STING DSF assay was performed to determine protein thermostability shift in response to small molecule ligand binding. A STING thermostability shift assay based on differential scanning fluorimetry was used to measure (1) the net shift in melting temperature (ΔTm)between the apo and ligand-bound states of the STING protein and (2) the concentration of the thermal denaturation transition (EC50) as a surrogate measure of binding affinity (K). […] Protein in assay buffer was transferred to a 384 well plate and incubated with the hydrophobic fluorescent dye SYBR Orange. A temperature ramp was applied to the plate and the resulting dye fluorescence was plotted as a function of temperature. The first derivative of this function (dF/dT) was then used to extrapolate the melting temperature of the protein at various concentrations of compound and determine the thermal denaturation profile of a protein/compound complex.
• 1. Protein construct (affinity tag removal vs SUMO-fusion construct) • 2. Protein concentration • 3. Dye concentration • 4. Buffer • 5. Thermal ramp velocity • 6. DMSO tolerance • 7. Compound titration parameters • 8. […] 5 μM purified Target STING Protein • 3. 8 μM Sypro Orange Dye • 4. Buffer: 100 mM NaCl, 30 mM HEPES, pH 7.5 • 5. Thermal Ramp: 0.5° C./min • 6. <1% DMSO • 7. 11 point, 2 fold dilution, duplicate, 300 μM high concentrations • 8.

hSTING-R232 = hSTING-R232 (Homo sapiens (Human), UniProt Q86WV6, H232R); assay: STING differential scanning fluorimetry (DSF) assay, WT human STING; conditions: WT (R232) human STING aa140-379, net shift in melting temperature
Sequence of hSTING-R232 (Q86WV6 140-379 H232R): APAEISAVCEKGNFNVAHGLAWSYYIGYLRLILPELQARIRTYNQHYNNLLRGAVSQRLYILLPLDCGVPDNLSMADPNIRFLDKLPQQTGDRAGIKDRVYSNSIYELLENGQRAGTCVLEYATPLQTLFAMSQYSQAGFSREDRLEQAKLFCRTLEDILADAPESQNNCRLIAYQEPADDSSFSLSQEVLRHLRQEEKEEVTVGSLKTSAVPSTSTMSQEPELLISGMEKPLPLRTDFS

STING protein = STING protein (Homo sapiens (Human), UniProt Q86WV6, H232R); assay: Cell based reporter assay of IRF activation (IRF-luciferase), THP1-dual-KI R232; conditions: read-out: THP1-dual-KI R232_IRF(Luciferase)_Activity Maximum measured (%)
Sequence of STING protein (Q86WV6 whole entry H232R): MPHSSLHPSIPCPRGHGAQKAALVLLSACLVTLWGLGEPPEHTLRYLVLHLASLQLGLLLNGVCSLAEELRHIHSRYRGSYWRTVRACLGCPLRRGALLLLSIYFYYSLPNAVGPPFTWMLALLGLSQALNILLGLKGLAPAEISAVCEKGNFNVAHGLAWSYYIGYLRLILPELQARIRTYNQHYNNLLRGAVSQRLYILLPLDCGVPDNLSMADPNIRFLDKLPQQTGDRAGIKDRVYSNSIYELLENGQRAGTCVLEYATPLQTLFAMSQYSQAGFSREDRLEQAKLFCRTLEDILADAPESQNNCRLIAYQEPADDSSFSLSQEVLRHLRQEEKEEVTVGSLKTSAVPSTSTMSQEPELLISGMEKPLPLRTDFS

mSTING = mSTING (Mus musculus, UniProt Q3TBT3); assay: Radiometric filtration binding competition assay, mSTING

Sequence of hSTING-WT (Q86WV6 140-379 H232R): as the sequence (Q86WV6 140-379 H232R) above

Structure (SMILES)	IC50 (hSTING-WT) [µM]	MOUSE DSF_6xHIS-SUMO Tm Shift (° C.) (mSTING-R232)	WT_DSF_hSWAT Tm Shift (° C.) (hSTING-R232)	Emax (STING protein) [%]	IC50 (mSTING) [µM]
O=C(O)Cn1c2ccccc2c(=O)c2cccc(Br)c21 [Compound 130]	> 300	C (“C” = 5-15° C.)	B (“B” = 0-2° C.)		
COc1cccc2c(=O)c3ccccc3n(CC(=O)O)c12 [Compound 131]	> 300	A (“A” < 0° C.)	A (“A” < 0° C.)		
Cc1cccc2c(=O)c3cccc(C)c3n(CC(=O)O)c12 [Compound 132]	100 to 300	A (“A” < 0° C.)	A (“A” < 0° C.)	< 5	
COc1ccc2c(c1C)c(=O)c1ccc(Cl)c(Cl)c1n2CC(=O)O [Compound 133]	100 to 300	B (“B” = 0-5° C.)	A (“A” < 0° C.)		
CC(C(=O)O)n1c2ccccc2c(=O)c2ccc(Cl)c(Cl)c21 (stereo not shown) [Compound 141]	> 300	A (“A” < 0° C.)			
NC(=O)Cn1c2ccccc2c(=O)c2ccc(Cl)c(Cl)c21 [Compound 146]		B (“B” = 0-5° C.)			
O=C(O)Cn1c2ccccc2c(=O)c2ccc(F)c(Br)c21 [Compound 173]	> 300	C (“C” = 5-15° C.)	B (“B” = 0-2° C.)		
Cc1ccc2c(=O)c3ccc(Cl)cc3n([C@H](C)C(=O)O)c2c1 [Compound 179]	100 to 300	B (“B” = 0-5° C.)	A (“A” < 0° C.)		
Cc1ccc2c(=O)c3ccc(Cl)cc3n([C@@H](C)C(=O)O)c2c1 [Compound 180]	20 to 100	B (“B” = 0-5° C.)	A (“A” < 0° C.)		
COc1c(Cl)ccc2c(=O)c3ccc(Nc4ccccc4OC(F)(F)F)cc3n(CC(=O)O)c12 [Compound 286]	< 20		D (“D” > 7° C.)	> 50	< 20
C[C@H](Oc1c(Cl)ccc2c(=O)c3ccccc3n(CC(=O)O)c12)c1ccccc1 [Compound 295]	100 to 300		A (“A” < 0° C.)	< 5	> 300
C[C@@H](Oc1c(Cl)ccc2c(=O)c3ccccc3n(CC(=O)O)c12)c1ccccc1 [Compound 296]	> 300		A (“A” < 0° C.)	< 5	> 300
O=C(O)Cn1c2cc(Cl)ccc2c(=O)c2ccc(Nc3ccccc3)cc21 [Compound 301]	20 to 100		C (“C” = 2-7° C,)	< 5	< 20
CCCCCCOc1c(Cl)ccc2c(=O)c3ccccc3n(CC(=O)O)c12 [Compound 303]	20 to 100		C (“C” = 2-7° C,)	5 to 25	100 to 300
[N-]=[N+]=NCc1c(Cl)ccc2c(=O)c3ccccc3n(CC(=O)O)c12 [Compound 305]	> 300		B (“B” = 0-2° C.)	< 5	> 300
COc1cc(Cl)c(OC)c2c1c(=O)c1ccccc1n2CC(=O)O [Compound 313]	> 300		B (“B” = 0-2° C.)	< 5	> 300
COc1c(Cl)c(O)cc2c(=O)c3ccccc3n(CC(=O)O)c12 [Compound 315]	> 300		B (“B” = 0-2° C.)	< 5	> 300
COc1c(Cl)c(N)cc2c(=O)c3ccccc3n(CC(=O)O)c12 [Compound 316]	> 300		B (“B” = 0-2° C.)	< 5	> 300

The next lines start with the values.

IC50 (hSTING-WT) [µM]	MOUSE DSF_6xHIS-SUMO Tm Shift (° C.) (mSTING-R232)	WT_DSF_hSWAT Tm Shift (° C.) (hSTING-R232)	Emax (STING protein) [%]	IC50 (mSTING) [µM]	Structure (SMILES)
20 to 100	B (“B” = 0-5° C.)	B (“B” = 0-2° C.)	< 5		CC(C)c1ccc(-c2ccc3c(c2)c(=O)c2ccc(Cl)c(Br)c2n3CC(=O)O)cc1 [Compound 109]
100 to 300	B (“B” = 0-5° C.)	A (“A” < 0° C.)	< 5		Cc1cc2c(cc1F)c(=O)c1ccc(Cl)c(Cl)c1n2CC(=O)O [Compound 135]
20 to 100	C (“C” = 5-15° C.)	C (“C” = 2-7° C,)	> 50		CC(C)(C)CNc1ccc2c(=O)c3ccc(Cl)c(Cl)c3n(CC(=O)O)c2c1 [Compound 138]
20 to 100	D (“D” > 15° C.)	C (“C” = 2-7° C,)	< 5		CC1(C)CCCC(Nc2ccc3c(=O)c4ccc(Cl)c(Cl)c4n(CC(=O)O)c3c2)C1 (stereo not shown) [Compound 139]
20 to 100	D (“D” > 15° C.)	C (“C” = 2-7° C,)	5 to 25		CC1CCC(Nc2ccc3c(=O)c4ccc(Cl)c(Cl)c4n(CC(=O)O)c3c2)CC1 (stereo not shown) [Compound 140]
100 to 300	C (“C” = 5-15° C.)	C (“C” = 2-7° C,)	< 5		O=C(O)Cn1c2cc(NC3CCOCC3)ccc2c(=O)c2ccc(Cl)c(Cl)c21 [Compound 142]
> 300	B (“B” = 0-5° C.)	B (“B” = 0-2° C.)			O=C(O)Cn1c2cc(NC3CCNCC3)ccc2c(=O)c2ccc(Cl)c(Cl)c21 [Compound 143]
> 300	C (“C” = 5-15° C.)	B (“B” = 0-2° C.)			O=C(O)Cn1c2cc(C(F)(F)F)ccc2c(=O)c2ccc(Cl)c(Cl)c21 [Compound 165]
20 to 100		D (“D” > 7° C.)	25 to 50	20 to 100	Cc1ccc2c(=O)c3ccc(Cl)c(OCc4ccccc4)c3n(CC(=O)O)c2c1 [Compound 285]
< 20		D (“D” > 7° C.)	25 to 50	20 to 100	CC(C)Sc1c(Cl)ccc2c(=O)c3ccc(C(C)(C)C)cc3n(CC(=O)O)c12 [Compound 290]
> 300		A (“A” < 0° C.)	< 5	> 300	C[C@H](O)COc1c(Cl)ccc2c(=O)c3ccccc3n(CC(=O)O)c12 [Compound 302]
20 to 100		D (“D” > 7° C.)	> 50	< 20	CCSc1c(Cl)ccc2c(=O)c3ccc(C)cc3n(CC(=O)O)c12 [Compound 304]
> 300		B (“B” = 0-2° C.)	< 5	> 300	COc1c(Cl)ccc2c(=O)c3cc(O)c(C(C)C)cc3n(CC(=O)O)c12 [Compound 317]
> 300		A (“A” < 0° C.)	< 5	> 300	COc1c(Cl)ccc2c(=O)c3cc(N(C)C)c(C(C)C)cc3n(CC(=O)O)c12 [Compound 319]
100 to 300		A (“A” < 0° C.)	< 5	> 300	COc1c(Cl)ccc2c(=O)c3cc(N)c(C(C)C)cc3n(CC(=O)O)c12 [Compound 320]
> 300		B (“B” = 0-2° C.)	5 to 25	> 300	CCOC(=O)Cn1c2cc(C)ccc2c(=O)c2ccc(Cl)c(OCC)c21 [Compound 321]
> 300		B (“B” = 0-2° C.)	5 to 25	> 300	CCOc1c(Cl)ccc2c(=O)c3ccc(C)cc3n(CC(=O)OC)c12 [Compound 322]
